Data published in the supplement of paper PMC10307832.

How the values were obtained:
Experiment in all cases: relative viability (nuclei count vs DMSO), 5 days (fraction); higher = more cells survive
Doxorubicin + Foretinib = compound: COc1cccc2c1C(=O)c1c(O)c3c(c(O)c1C2=O)C[C@@](O)(C(=O)CO)C[C@@H]3O[C@H]1C[C@H](N)[C@H](O)[C@H](C)O1 [Doxorubicin] + COc1cc2c(Oc3ccc(NC(=O)C4(C(=O)Nc5ccc(F)cc5)CC4)cc3F)ccnc2cc1OCCCN1CCOCC1 [Foretinib] (partner 0.25 µM)
Summary of the method: (§1)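 After 5 days of treatment, lung cancer cells in 1536-well plates were fixed and stained in a single step (final 0.05% Triton X-100, 1% formaldehyde, 1 ug/ml Hoechst) and their nuclei counted on 4× images. Treatment had been applied by pin tool the day after seeding as one drug alone or as a fixed anchor-drug dose with five library-drug doses (not always all listed) in √10 steps. Relative viability is the nuclei count of treated wells divided by that of vehicle wells, and values are medians of duplicate plates.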

BAY61-3606 + Olaparib = compound: COC1=C(C=C(C=C1)C2=CC3=NC=CN3C(=N2)NC4=C(C=CC=N4)C(=O)N)OC [BAY61-3606] + O=C(c1cc(Cc2n[nH]c(=O)c3ccccc23)ccc1F)N1CCN(C(=O)C2CC2)CC1 [Olaparib] (partner 8 µM)
Summary of the method: as §1

Doxorubicin + Crizotinib = compound: COc1cccc2c1C(=O)c1c(O)c3c(c(O)c1C2=O)C[C@@](O)(C(=O)CO)C[C@@H]3O[C@H]1C[C@H](N)[C@H](O)[C@H](C)O1 [Doxorubicin] + C[C@@H](Oc1cc(-c2cnn(C3CCNCC3)c2)cnc1N)c1c(Cl)ccc(F)c1Cl [Crizotinib] (partner 1 µM)
Summary of the method: as §1

BAY61-3606 + AZD7762 = compound: COC1=C(C=C(C=C1)C2=CC3=NC=CN3C(=N2)NC4=C(C=CC=N4)C(=O)N)OC [BAY61-3606] + NC(=O)Nc1cc(-c2cccc(F)c2)sc1C(=O)N[C@H]1CCCNC1 [AZD7762] (partner 0.2 µM)
Summary of the method: as §1

Cell Line | relative viability (Doxorubicin + Foretinib; first compound 0.003162 µM) | relative viability (Doxorubicin + Foretinib; first compound 0.01 µM) | relative viability (Doxorubicin + Foretinib; first compound 0.03162 µM) | relative viability (Doxorubicin + Foretinib; first compound 0.1 µM) | relative viability (BAY61-3606 + Olaparib; first compound 0.02 µM) | relative viability (BAY61-3606 + Olaparib; first compound 0.06325 µM) | relative viability (BAY61-3606 + Olaparib; first compound 0.2 µM) | relative viability (BAY61-3606 + Olaparib; first compound 0.6325 µM) | relative viability (BAY61-3606 + Olaparib; first compound 2 µM) | relative viability (Doxorubicin + Crizotinib; first compound 0.001 µM) | relative viability (Doxorubicin + Crizotinib; first compound 0.003162 µM) | relative viability (Doxorubicin + Crizotinib; first compound 0.01 µM) | relative viability (Doxorubicin + Crizotinib; first compound 0.03162 µM) | relative viability (Doxorubicin + Crizotinib; first compound 0.1 µM) | relative viability (BAY61-3606 + AZD7762; first compound 0.02 µM) | relative viability (BAY61-3606 + AZD7762; first compound 0.06325 µM) | relative viability (BAY61-3606 + AZD7762; first compound 0.2 µM) | relative viability (BAY61-3606 + AZD7762; first compound 0.6325 µM) | relative viability (BAY61-3606 + AZD7762; first compound 2 µM) | relative viability (Doxorubicin + Foretinib; first compound 0.001 µM)
NCI-H2087 | 1.1 | 1.03 | 0.851 | 0.693 | 0.547 | 0.682 | 0.489 | 0.54 | 0.448 | 0.795 | 0.952 | 0.923 | 0.661 | 0.666 | 1.31 | 1.43 | 1.35 | 1.23 | 0.959 | 
NCI-H2126 | 1.12 | 0.884 | 1.12 | 1.28 | 0.92 | 0.985 | 0.865 | 0.909 | 0.833 | 1.04 | 1.08 | 0.961 | 1.08 | 1.05 | 1.06 | 1.09 | 0.999 | 1.02 | 0.954 | 1.29
NCI-H2170 | 1.07 | 0.998 | 0.96 | 0.97 | 0.59 | 0.62 | 0.571 | 0.626 | 0.435 | 1.25 | 1.46 | 1.23 | 1.03 | 1.32 | 0.895 | 0.913 | 0.885 | 0.85 | 0.585 | 0.994
NCI-H2347 | 0.847 | 0.708 | 1.02 | 0.714 | 0.575 | 0.629 | 0.603 | 0.597 | 0.559 | 0.869 | 0.735 | 0.735 | 0.603 | 0.503 | 0.801 | 0.701 | 0.73 | 0.67 | 0.709 | 0.845
NCI-H2405 | 1.1 | 1.02 | 1.09 | 1 | 0.941 | 0.89 | 0.845 | 0.907 | 0.695 | 0.843 | 0.869 | 0.846 | 0.871 | 0.85 | 0.832 | 0.658 | 0.748 | 0.658 | 0.496 | 1.02
NCI-H3122 | 0.918 | 0.944 | 0.942 | 0.904 | 0.607 | 0.652 | 0.676 | 0.636 | 0.57 | 0.247 | 0.302 | 0.295 | 0.257 | 0.282 | 0.989 | 0.968 | 0.962 | 1.02 | 0.945 | 0.959
PC-3 [JPC-3] | 1.06 | 1.05 | 0.97 | 1.06 | 1.25 | 1.16 | 1.17 | 1.17 | 1.06 | 0.999 | 1 | 0.977 | 0.931 | 0.936 | 0.675 | 0.794 | 0.809 | 0.801 | 0.752 | 1.05
PC-14 | 0.967 | 0.998 | 0.912 | 0.931 |  | 0.284 | 0.212 | 0.235 | 0.204 | 0.893 | 0.985 | 0.962 | 0.892 | 0.944 | 0.418 | 0.268 | 0.35 | 0.32 | 0.342 | 1
RERF-LC-KJ | 0.944 | 0.81 | 0.761 | 0.867 | 0.878 | 0.899 | 1.07 | 0.872 | 0.779 | 0.872 | 0.846 | 0.865 | 0.956 | 0.7 | 1.07 | 0.846 | 1.03 | 0.872 | 0.869 | 0.9
